# Experimental data as given in paper PMC4925259 (Molecular microbiology, 2016).
# Biological target: cytochrome bo oxidase (Escherichia coli, UniProt P0ABI8)
# Type: biochemical
# Chain of cytochrome bo oxidase (P0ABI8 whole entry): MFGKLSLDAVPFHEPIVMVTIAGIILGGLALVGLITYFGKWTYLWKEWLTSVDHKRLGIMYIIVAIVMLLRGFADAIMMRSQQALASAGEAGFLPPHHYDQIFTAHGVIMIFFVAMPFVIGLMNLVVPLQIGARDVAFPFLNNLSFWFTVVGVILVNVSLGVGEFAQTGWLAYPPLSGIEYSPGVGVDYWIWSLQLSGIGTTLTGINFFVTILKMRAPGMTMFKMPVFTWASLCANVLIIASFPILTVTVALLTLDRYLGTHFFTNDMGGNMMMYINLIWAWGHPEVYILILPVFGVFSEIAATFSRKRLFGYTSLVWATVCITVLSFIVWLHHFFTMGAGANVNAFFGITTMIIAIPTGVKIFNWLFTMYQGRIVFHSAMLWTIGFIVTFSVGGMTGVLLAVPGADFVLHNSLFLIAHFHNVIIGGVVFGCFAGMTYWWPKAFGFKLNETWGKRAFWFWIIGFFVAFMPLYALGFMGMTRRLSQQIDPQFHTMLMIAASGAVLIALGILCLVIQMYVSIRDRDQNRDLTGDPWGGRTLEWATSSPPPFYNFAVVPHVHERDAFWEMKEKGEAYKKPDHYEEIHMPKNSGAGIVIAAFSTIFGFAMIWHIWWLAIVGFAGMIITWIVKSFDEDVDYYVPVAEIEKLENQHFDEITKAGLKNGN
# Chain of cytochrome bo oxidase (P0ABJ1 25-315 partner): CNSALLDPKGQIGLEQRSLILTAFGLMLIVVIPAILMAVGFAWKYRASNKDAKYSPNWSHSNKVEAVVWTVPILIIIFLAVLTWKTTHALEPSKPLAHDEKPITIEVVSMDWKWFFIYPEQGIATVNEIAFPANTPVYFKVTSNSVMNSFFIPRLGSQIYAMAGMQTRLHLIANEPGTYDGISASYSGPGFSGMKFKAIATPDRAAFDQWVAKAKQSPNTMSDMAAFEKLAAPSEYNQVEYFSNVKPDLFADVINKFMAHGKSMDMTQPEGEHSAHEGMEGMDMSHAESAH
# Chain of cytochrome bo oxidase (P0ABJ3 whole entry partner): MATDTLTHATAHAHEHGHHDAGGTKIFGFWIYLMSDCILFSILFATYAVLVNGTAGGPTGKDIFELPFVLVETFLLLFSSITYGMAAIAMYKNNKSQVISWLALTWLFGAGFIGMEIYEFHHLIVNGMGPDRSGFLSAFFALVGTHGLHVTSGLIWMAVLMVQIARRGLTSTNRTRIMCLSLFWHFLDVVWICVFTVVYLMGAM
# Chain of cytochrome bo oxidase (P0ABJ6 whole entry partner): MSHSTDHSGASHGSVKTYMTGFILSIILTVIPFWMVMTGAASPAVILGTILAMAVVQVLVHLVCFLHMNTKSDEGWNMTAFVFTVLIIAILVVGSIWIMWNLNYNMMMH
structure (smiles),measurement,value
S [hydrogen sulfide],IC50,~5 µM
